According to patent publication EP0805678B1, “SURFACE-MODIFIED NANOPARTICLES AND METHOD OF MAKING AND USING SAME” (THE BOARD OF REGENTS acting for and on behalf of THE …, priority 1995, dated 1996):

Tests used:
[1] = test system: coronary artery; test: in vivo retention of nanoparticles in porcine coronary artery; set-up: species or system pigs; details: after local delivery of U86-loaded nanoparticles; about 45 µg nanoparticles per 1 cm LAD
Procedure: In addition to the in vivo studies with rats, the nanoparticles were tested on pigs, weighing between about 30-40 lbs. In each subject pig, the elastic lamina of the coronary artery was ruptured by over inflation of a balloon tip catheter. A nanoparticle suspension (2.5 to 10 mg/ml in normal saline) was infused at the location of the injury by a Wolinksy (28 or 96 hole) or D-3 balloon catheter (Sci-Med, Minneapolis, MN) at 1-3 atmosphere pressure over 1 to 5 minutes. After 2-6 hours, the coronary arteries were harvested and quantitated for drug levels to calculate nanoparticle retention. U86 loaded-PLGA nanoparticles (15% w/w) with 5% DMAB surface modification and a particle size between 100-149 nm were suspended in normal saline at a concentration 15 or 30 mg/ml. The nanoparticles (NP) were administered to pigs which were sacrificed at 30 minutes or after one hour.

[2] = test system: ADP-induced platelet aggregation; test: in vitro platelet aggregometry; type: cell-based, pig; details: platelet rich plasma at 37° C, effects monitored after 1 minute
Procedure: Using standard in vitro platelet aggregometry techniques, a dose-response curve was first developed with free ciprostene to determined its inhibitory potency against standard ADP-induced platelet aggregation. […] Concentrations of PLGA nanoparticles ranging from 0.3 to 30 µg/ml (actual ciprostene concentration of 0.06 to 6 µg/ml due to 20% drug loading) were added to platelet rich plasma samples heated to 37° C. The platelet inhibitory effects were monitored after 1 minute. The IC50 for the polymer-incorporated ciprostene was 0.59 µg/ml. Non-drug containing PLGA nanoparticles, as controls, had no obvious effects on the aggregation profile of pig platelets to the agonist ADP.

| net U86 in 1 cm of treated artery [1] | IC50 [2] | SMILES |
| --- | --- | --- |
| about 7 µg |  | O=c1cc(N2CCOCC2)oc2c(OCc3cccnc3)cccc12 [Sample U86, U-86983] |
|  | roughly 0.28 µg/ml | CCCCC[C@H](O)/C=C/[C@H]1[C@H](O)C[C@]2(C)C/C(=C\CCCC(=O)O)C[C@H]12 [free ciprostene, ciprostene] |
